From patent US11998589B2, “PEGylated peptide amphiphile nanofibers and methods of use” (Northwestern University, priority 2020, dated 2024)
Square brackets hold non-standard residues; d marks the D form. Peptide text beside a SMILES is read from it. * marks the point of attachment. PEG10 = NCCOCCOCCOCCOCCOCCOCCOCCOCCOCCOCCC(=O)O; Palmitoyl = CCCCCCCCCCCCCCCC(=O)*

Experiments:
[1] = Zeta potential of PA solutions; type: physicochemical; conditions: for surface charge (zeta-potential), sign: neutral pH
Method: Zeta potential: Heat-treated PA solutions were diluted 20 times in 30 mM NaCl with 10 mM HCl, 30 mM NaCl, or 30 mM NaCl with 10 mM NaOH for pH 2, pH 7, and pH 12 respectively. For each PA, three separate samples were prepared at each pH. Samples were loaded in a disposable folded capillary cell and zeta-potential was measured at 25° C. using a Zetasizer Nano ZS (Malvern Instruments, Malvern, UK). The average of the three measurements for each sample was plotted.

[2] = Cytotoxicity (calcein / ethidium homodimer live-dead staining); type: cell-based; conditions: human, nHLF cultures, 36 hours culture; for viability at 36 h: normal human lung fibroblasts (nHLF), up to 100 μM PA, read-out: cells staining positive for calcein (percent viable cells)
Method: Cytotoxicity: Normal Human Lung Fibroblasts were obtained from Lonza and maintained in growth medium consisting of DMEM with 10% fetal bovine serum (FBS) and 1% penicillin/streptomycin. Cells (passage 5) were tryspinized and resuspended in media containing 2% FBS and 150 μl of the cell suspension was added to each well of a 96 well microplate for a total of 2,500 cells per well. After 2 hours attachment, 50 μl PA solutions diluted in PBS to 4 μM, 20 μM, 100 μM, or 400 μM were added to each well. After 36 hours culture, the media was removed and replaced with a solution of 2 μM calcein and 4 μM ethidium homodimer in PBS. After 30 minutes, cells were imaged using a Cytation 3 microplate reader. Live and Dead cells were counted using the MATLAB image Processing Toolbox to determine viability.

[3] = Resuspension of purified PA in water; type: physicochemical; conditions: purified molecule in water
Method: Solubilization and Heat Treatment: PA powders were resuspended to 10 mM in water for experiments at pH 7, in 10 mM hydrochloric acid for pH 2 and 10 mM sodium hydroxide for pH 12. After resuspension, 1 M sodium hydroxide or 1 M hydrogen chloride were added to achieve the desired pH. To co-assemble PA molecules, PA solutions were mixed volumetrically, bath sonicated for 1 hour and then left on the bench to age for at least 2 hours. A solution of 150 mM NaCl was added to all samples to achieve a final NaCl concentration of 30 mM. All samples were heat treated at 80° C. for 30 minutes followed by gradual cooling by 1° C. per minute to 25° C.
To produce PA filaments without ionic charge, a short PEG chain was substituted for the ionizable amino acids typically included in PA molecules to maintain solubility of the PA in an aqueous environment. To form an uncharged PA filament, the sequence N-palmitoyl-VVAA was chosen as the aliphatic tail and hydrogen bonding peptide. As the hydrophilic domain, a 10-mer PEG amino acid was selected, which was hypothesized to be long enough to solubilize the PA while limiting steric repulsion among assembled molecules (PA1, FIG. 2A). The PA was synthesized by coupling the PEG amino acid to a rink-amide resin and completing the peptide using standard Fmoc solid phase peptide synthesis, leaving an uncharged amide group after cleavage from the resin. […]

[4] = Nile red assay of aggregation; type: physicochemical; conditions: buffers of 0 mM, 15 mM and 150 mM NaCl
Method: Nile Red Assay: Following heat treatment, PA solutions were serially diluted in water (0 mM NaCl), or a buffer of 15 mM NaCl, or 150 mM NaCl. A solution of 100 μM Nile red was added to the PA solutions to one thousandth the total volume and incubated for 1 hour. The fluorescence spectrum was read from 600 nm to 700 nm using a BioTek Cytation 3 microplate reader using 560 nm excitation and the fluorescence shift was determined by subtracting the maximum […] wavelength for each sample from that of the dye solution diluted in each buffer alone.

[5] = test system: Human mesenchymal stem cells; test: Alkaline phosphatase (ALP) activity, osteogenic differentiation; type: cell-based; conditions: human MSCs, one week
Method: Alkaline Phosphatase Activity: Human mesenchymal stem cells were obtained from Lonza and maintained in Mesenchymal Stem Cell Growth Media (Lonza). Cells were used for experiments prior to passage 6. Cells were trypsinized and resuspended in growth media containing high glucose DMEM supplemented with 10% FBS and 1% penicillin/streptomycin and 50 mg/L sodium ascorbate. 500 μl of the cell suspension was placed in each well of a 24 well plate and incubated for 24 hours. Media was removed and replaced with 540 μl of growth media or osteogenic media containing low glucose DMEM supplemented with 10% FBS, 50 mg/L sodium ascorbate 10 mM 3-glycerophosphate, and 100 nM dexamethasone. 60 μl of a 10 times concentrated PA solution in PBS was then added to each well. Every 3-4 days, media was replaced by removing 300 μl media and adding 270 μl growth media or osteogenic media and 30 μl of the 10 times concentrated PA solution in PBS. Alkaline phosphatase (ALP) activity was determined using the SensoLyte pNPP ALP Assay Kit (Anaspec, Fremont, CA) according to the manufacturer's instructions. […] The supernatant was mixed with the assay's detection buffer in a microplate and the optical absorbance was read after a four-hour incubation using a Cytation 3 microplate reader. […]

Compound: N-palmitoyl-VVAAEE-PEG10 [PA4]
- Zeta-potential (surface charge) ([1]; pH 2): ~0 mV

Compound: CCCCCCCCCCCCCCCC(=O)N[C@H](C(=O)N[C@H](C(=O)N[C@@H](C)C(=O)N[C@@H](C)C(=O)NCCOCCOCCOCCOCCOCCOCCOCCOCCOCCOCCC(N)=O)C(C)C)C(C)C [PA1] (Palmitoyl-VVAA[PEG10]-NH2)
- viability at 36 h [2]: > 85%
- solubility in water (resuspension) [3]: readily resuspended in water

Compound: CCCCCCCCCCCCCCCC(=O)N[C@H](C(=O)N[C@H](C(=O)N[C@@H](C)C(=O)N[C@@H](C)C(=O)N[C@@H](CCCCN)C(=O)N[C@@H](CCCCN)C(N)=O)C(C)C)C(C)C [PA3] (Palmitoyl-VVAAKK-NH2)
- EC50 at 36 h ([2]; Normal Human Lung Fibroblasts (nHLF)): 25 ± 4 µM
- surface charge (zeta-potential), sign [1]: positively charged
- aggregation as indicated by redshift in Nile red fluorescence, dependence on ionic strength [4]: less dependent on ionic strength than PA2

Compound: N-palmitoyl-VVAAKK-PEGio [PA5]
- Zeta-potential (surface charge) ([1]; pH 12): ~0 mV

Compound: CCCCCCCCCCCCCCCC(=O)N[C@H](C(=O)N[C@H](C(=O)N[C@@H](C)C(=O)N[C@@H](C)C(=O)N[C@@H](CCC(=O)O)C(=O)N[C@@H](CCC(=O)O)C(N)=O)C(C)C)C(C)C [PA2] (Palmitoyl-VVAAEE-NH2)
- viability at 36 h [2]: > 85%
- ALP activity (osteogenic differentiation) in growth media ([5]; growth media, various PA concentrations): increased with increasing PA2 concentration
- ALP activity (osteogenic differentiation) in osteogenic media ([5]; osteogenic media with dexamethasone and β-glycerophosphate): did not affect differentiation
- surface charge (zeta-potential), sign [1]: negatively
- aggregation as indicated by redshift in Nile red fluorescence, dependence on ionic strength [4]: depended on ionic strength of the buffer
